Assay results: patent US8389739B1, “Modulators of retinoid-related orphan receptor gamma” (Orphagen Pharmaceuticals, priority 2006, dated 2013)
One block for each compound: values may come before it.

Experiments:
[1] = system: IL-17 release and TH-17 cells in lymph node cultures; assay: Lymph node cell cultures from PLP-immunized SJL/J mice, IL-17 ELISA and Th-17 FACS; assay type: cell-based
Experimental: FIGS. 13A-F. IL-17 levels in lymph node cells from mice immunized with myelin-derived peptides respond to cognate peptide antigens, IL-23 and RORγ ligands. (FIG. 13A) SJL/J mice were immunized by complete Freund's adjuvant (CFA) only or by Proteolipid Protein residues 139-151 (PLP139-151) emulsified in CFA. Lymph nodes were cultured for 3 days in with or without 40 μg/ml PLP in the presence or absence of OR-885. Culture media were analyzed by ELISA for IL-17. (FIGS. 13B-C) Lymph node cells from PLP-immunized SJL/J mice were cultured as before with the addition of 10 ng/ml IL-23 and 3 μM compounds. At the end of 1 day or 3 days in culture, Th-17 (CD4^+CD8^−IL17^+) cell frequency was measured by FACS (FIG. 13B) and compared to IL-17 levels in culture media (FIG. 13C). (FIGS. 13D-F) Lymph node cells from MOG35-55 immunized C57BL/6 mice were cultured for 3 days with 30 μg/ml MOG and/or 10 ng/ml IL-23. RORγ ligands were not added (FIG. 13D), or added at the beginning of the culture at a single concentration (FIG. 13E, 1 μM) or in multiple doses (FIG. 13F).
FIG. 14. Inhibition of IL-17 release in mouse lymph node cultures by the RORγ antagonist OR-885 can be reversed by the RORγ agonist OR-12872. The lymph node cells were culture in the presence of 10 ng/mL IL-23 and 40 μg/mL PLP for three days under identical conditions to FIG. 13 and IL-17 in the culture supernatant was measured by ELISA.
ELISA kits for mouse IL-17 and human IL-17 were from eBioscience (San Diego, Calif.). ELISA assays were performed following the manufacturer's protocol. Certain samples were diluted 20-fold to avoid maximization of enzymatic signals. For mouse IL-22 ELISA, antibodies and standards were from Antigenix America (Huntington Station, N.Y.) and accessory components were from eBioscience. The IL-22 assay protocol was similar to that of the IL-17 assays. […]

RORα (mRORα) = biological target: T1, RORα (mRORα) (Mus musculus, UniProt P51448); assay: Transcriptional assay of RORα as GAL4 hybrid; assay type: cell-based; settings: same format as the GAL4-RORγ assay
T1 construct: mRORα (NR1F1, aa 266-523); expressed in transfected cells; host or cells: CHO cells, transient transfection
Experimental: This example also describes several additional tests that were commonly performed to confirm the authenticity of a hit to RORγ. These tests also verified the validity of the transcriptional and biochemical assays used. […] In some cases, close analogs of a confirmed hit were obtained by synthesis or purchase from a commercial source. The series of compounds related to the confirmed hit was then tested in the biochemical and transcriptional assays. The rank order of the potency of the compounds was then compared. […] The data imply in turn that the compounds are binding to the same binding pocket. […]
Four hours after transfection, cells were dislodged with trypsin and seeded into a 384-well plate at 8,000 cells/well using a Titertek Multidrop 384. […] After incubation for 2 hours at 37 degrees centigrade, the conversion of resazurin to resorufin was measured by fluorescence (excitation at 570 nm and emission at 615 nm). […] Percent viability was determined as 2 hour fluorescence, minus background at t=0 hours, normalized to DMSO controls. […] Luminescence is detected with a Victor 2-V plate reader (Perkin-Elmer) and normalized to luciferase activity of DMSO control wells alone.

T1 sequence (P51448 266-523): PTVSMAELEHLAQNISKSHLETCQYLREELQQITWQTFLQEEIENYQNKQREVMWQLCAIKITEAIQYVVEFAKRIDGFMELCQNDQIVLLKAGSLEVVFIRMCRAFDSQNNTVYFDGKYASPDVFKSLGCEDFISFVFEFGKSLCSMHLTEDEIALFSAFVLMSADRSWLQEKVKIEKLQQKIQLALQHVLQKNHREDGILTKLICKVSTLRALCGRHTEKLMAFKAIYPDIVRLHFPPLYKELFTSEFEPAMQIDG

Compound: COC(C)CCC(C)C1CCC2C3CC(O)C4CC(O)CCC4(C)C3CCC12C (centres unmarked) [OR-12872, 17-(4-Methoxy-1-methyl-pentyl)-10,13-dimethyl-hexadecahydro-cyclopenta[a]phenanthrene-3,6-diol]
reversal of antagonist suppression of IL-17 release ([1]; 10 ng/mL IL-23 and 40 μg/mL PLP, three days (FIG. 14)): reverses the suppressive effects of OR-885 on IL-17 release

effect on the transcription of RORα (RORα (mRORα)): no effects
Compound: O=S(=O)(c1ccccc1)N(CC(F)(F)F)c1ccc(C(O)(C(F)(F)F)C(F)(F)F)cc1 [Compound T0901317, N-(2,2,2-Trifluoro-ethyl)-N-[4-(2,2,2-trifluoro-1-hydroxy-1-trifluoromethyl-ethyl)-phenyl]-benzenesulfonamide, reference compound]

effect on the transcription of RORα (RORα (mRORα)): no effects
Compound: CCN(c1ccc(C(O)(C(F)(F)F)C(F)(F)F)cc1)S(=O)(=O)c1ccc([N+](=O)[O-])cc1 [OR-1050, N-Ethyl-4-nitro-N-[4-(2,2,2-trifluoro-1-hydroxy-1-trifluoromethyl-ethyl)-phenyl]-benzenesulfonamide]

Compound: C[C@@H]1CC[C@@]2(OC1)O[C@H]1C[C@H]3[C@@H]4CC[C@H]5C[C@@H](O)CC[C@]5(C)[C@H]4C[C@@H](O)[C@]3(C)[C@H]1[C@@H]2C [OR-885, 5α,20α, 22α, 25D-SPIROSTAN-3β, 12β-DIOL]
induction of TH-17 cells (as a percentage of total live cells) ([1]; PLP, 10 ng/ml IL-23, 3 μM compounds (FIG. 13B)): block
PLP-stimulated release of IL-17 ([1]; lymph node cultures, 40 μg/ml PLP, 3 days): inhibited
